Experiments:
[1] = biological target: T1, human orexin 1 receptor (hOX1R) (Homo sapiens, UniProt O43613); assay: Measurement of orexin antagonist activity (intracellular Ca2+ fluorescence, FDSS) in CHO cells expressing hOX1R; assay type: cell-based; conditions: CHO cells forcibly expressing hOX1R; ligand (two-amino-acid-substituted human orexin-A) 300 pM; Fluo 4-AM; read-out: IC50 value OX1
T1 construct: expressed in transfected cells; host or cells: Chinese hamster ovary (CHO) cells
T1 sequence (O43613 1-425): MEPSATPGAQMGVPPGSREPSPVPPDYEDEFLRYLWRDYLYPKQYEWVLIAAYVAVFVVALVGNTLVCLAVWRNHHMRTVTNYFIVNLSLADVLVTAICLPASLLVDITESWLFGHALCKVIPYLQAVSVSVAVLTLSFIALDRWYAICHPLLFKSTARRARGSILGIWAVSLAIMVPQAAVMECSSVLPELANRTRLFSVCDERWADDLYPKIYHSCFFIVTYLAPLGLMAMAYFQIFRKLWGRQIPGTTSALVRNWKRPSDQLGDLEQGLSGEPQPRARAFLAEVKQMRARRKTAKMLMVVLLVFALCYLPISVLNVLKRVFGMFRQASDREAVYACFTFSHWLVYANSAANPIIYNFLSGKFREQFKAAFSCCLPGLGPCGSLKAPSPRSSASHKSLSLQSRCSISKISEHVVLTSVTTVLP
Protocol: (§1) The antagonist activity of a test compound against the human orexin 1 receptor (hOX1R) or orexin 2 receptor (hOX2R) was measured by the method described in the document (Toshikatsu Okumura et al., Biochemical and Biophysical Research Communications, 280, 976-981, 2001) with appropriate modification. Chinese hamster ovary (CHO) cells forcibly expressing hOX1R or hOX2R were seeded into each well of a 96-well Black clear bottom plate (Nunc A/S) in the amount of 20000 cells per well and were cultured in a Ham's F-12 medium (Invitrogen, Inc.) containing 0.1 mM MEM non-essential amino acids (Invitrogen, Inc.), 0.5 mg/mL G418 (Invitrogen, Inc.), and 10% fetal calf serum (Invitrogen, Inc.) at 37° C. in 5% CO2 for 16 hours. The medium was removed, and then added to each well was 100 μL of an assay buffer (pH 7.4) containing 0.5 μM Fluo 4-AM ester (Dojindo Laboratories), wherein the buffer was composed of 25 mM HEPES (Dojindo Laboratories), a Hanks' balanced salt solution (Invitrogen, Inc.), 0.1% bovine serum albumin (Sigma-Aldrich Co., LLC.), 2.5 mM probenecid (Sigma-Aldrich Co., LLC.), and 200 μg/mL Amaranth (Sigma-Aldrich Co., LLC.), followed by incubation at 37° C. in 5% CO2 for 60 min. The assay buffer containing Fluo 4-AM ester was removed, and then 150 μL of an assay buffer solution containing 10 mM of the test compound dissolved in dimethyl sulfoxide was added to each well, followed by incubation for 30 min.
(§2) A peptide (Pyr-[…]NH2: Peptide Institute, Inc.), which is a ligand having substitution of two amino acids in human orexin-A, was diluted with an assay buffer to a final concentration of 300 pM for hOX1R and to a final concentration of 3 nM for hOX2R. The reaction was started by adding 50 μL of this ligand solution to each well. The reaction was monitored by measuring the fluorescence of each well at each 1 second for 3 min with a Functional Drug Screening System (FDSS manufactured by Hamamatsu Photonics K.K.), and the antagonist activity was determined based on the maximum fluorescence value as an index of the intracellular Ca^2+ concentration. The antagonist activity of a test compound was calculated by assuming that the fluorescence value of the well containing only a dilution buffer was 100% and that the fluorescence value of the well containing a buffer not containing the ligand or any test compound was 0%. The 50% inhibitory concentration (IC50 value) of a test compound was determined from fluorescence values at various concentrations of the test compound.

[2] = biological target: T2, human orexin 2 receptor (hOX2R) (Homo sapiens, UniProt O43614); assay: Measurement of orexin antagonist activity (intracellular Ca2+ fluorescence, FDSS) in CHO cells expressing hOX2R; assay type: cell-based; conditions: CHO cells forcibly expressing hOX2R; ligand (two-amino-acid-substituted human orexin-A) 3 nM; Fluo 4-AM; read-out: IC50 value OX2
T2 construct: expressed in transfected cells; host or cells: Chinese hamster ovary (CHO) cells
T2 sequence (O43614 1-444): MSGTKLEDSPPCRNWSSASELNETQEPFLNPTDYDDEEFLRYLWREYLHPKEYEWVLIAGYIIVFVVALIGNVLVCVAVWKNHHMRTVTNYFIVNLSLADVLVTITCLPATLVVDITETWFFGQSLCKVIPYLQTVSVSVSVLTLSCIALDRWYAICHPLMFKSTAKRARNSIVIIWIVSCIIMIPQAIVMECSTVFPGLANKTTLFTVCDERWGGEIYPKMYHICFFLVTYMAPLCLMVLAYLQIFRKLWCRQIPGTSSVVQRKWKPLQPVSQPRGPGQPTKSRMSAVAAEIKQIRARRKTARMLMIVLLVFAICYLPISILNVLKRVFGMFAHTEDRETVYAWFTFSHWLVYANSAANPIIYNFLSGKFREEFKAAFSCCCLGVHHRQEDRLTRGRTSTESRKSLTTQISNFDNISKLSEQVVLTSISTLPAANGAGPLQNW
Protocol: as §1, §2

Compound `CCN(CCc1ccn(-c2cccc(C)n2)n1)C(=O)c1ccccc1-n1nccn1` [Example 23, N-ethyl-N-{2-[1-(6-methylpyridin-2-yl)-1H-pyrazol-3-yl]ethyl}-2-(2H-1,2,3-triazol-2-yl) benzamide] has an IC50 [1] of 3 nM and an IC50 [2] of 10.3 nM.

Source: patent publication US20140081025A1, “HETEROAROMATIC RING DERIVATIVE” (TAISHO PHARMACEUTICAL CO., LTD., priority 2011, published 2014)
